Results on one substance are retold here after patent US4492651A, “Cyclic hexapeptides” (American Home Products Corporation, priority 1983, dated 1985).

Square brackets hold non-standard residues; d marks the D form.

In this test the test system is growth hormone release. Briefly: suppression of growth hormone release in arginine stimulated rats (plasma GH by radioimmunoassay). The following applies: Nembutal-anaesthetised albino male rats, blood 15 min after peptide. Format: in vivo. The protocol: The potent inhibition of growth hormone secretion was established for the compounds of this invention by subjecting the representative product of Example 5 to the following standard procedure involving suppression of growth hormone release in arginine stimulated rats:
Albino male rats are administered Nembutal intraperitoneally at a dose of 50 milligrams per kilogram. Fifteen minutes later a subcutaneous injection of the product of Example 5 is administered. Ten minutes later 0.5 milliliters of arginine (300 milligrams per milliliter, pH 7.2) is injected into the heart. Five minutes after receipt of the arginine the rats are decapitated and blood is collected into Trasylol-EDTA. An appropriate aliquot is assayed for growth hormone (GH) by radioimmuno-assay. The results of the test procedure were compared with those obtained in the same manner with Compound 8 of Table 2 disclosed by Veber et al., loc. cit., as follows: […]

For cyclo(PF[dW]KTF) [Compound 8], the “Plasma GH Levels” value (dose of peptide 0.1 μg/kg subcutaneous) came out at 278 ± 89 ng/mL, the “Plasma GH Levels” value (dose of peptide 1.0 μg/kg subcutaneous) turned out to be 169 ± 19 ng/mL and the “Plasma GH Levels” value (dose of peptide 10.0 μg/kg subcutaneous) worked out at 126 ± 6 ng/mL.
